Read-outs that look alike come from different tables or passages of the source.
Legend:
[1] = tested on: 1321N1 (human) astrocytic line; test: 1321N1 oxidative stress assay (serum withdrawal, DCF); details: for IC50: 1321N1, 24 h pre-treatment, serum withdrawal, DCF; for Lowest dose with toxicity: 1321N1; for Maximal % reduction in Oxidative stress: 1321N1, DCF fluorescence
Experimental: (§1) A simple oxidative stress assay was used to determine whether preconditioning with NRF2-ARE inducing drugs could protect against a subsequent oxidative stress insult (serum withdrawal). The NSC34, C6 and 1321N1 cells were plated in 96 well tissue culture plates to achieve 30% confluency. […] Media was then replaced with serum free, phenol free media for 5 hrs. […] Cell survival assay was then performed on the cells as protection is measured as % reduction in DCF signal, therefore data points were excluded where a decrease in cell number was measured.
(§2) Briefly methylthiazolyldiphenyl-tetrazolium bromide (MTT) was added to the cells and a blank well to a final concentration 0.5 mg/ml and incubated at 37° C. for 1-3 hrs depending on the cell line used.

[2] = tested on: NSC34 mouse motor neuronal cells
Experimental: as §1, §2

C6 (rat) astrocytic line [3] = tested on: C6 (rat) astrocytic line
Experimental: as §1, §2

[4] = tested on: 1321N1 (human) astrocytic line
Experimental: as §1, §2

[5] = tested on: NRF2-ARE pathway in the CHO 4× ARE-TK cell line; test: ARE reporter assay in CHO 4×ARE-TK-GFP cell line (GFP induction, EthD1 toxicity); details: for maximal fold induction: read-out: Average fold GFP induction at maximal response
Experimental: Chinese Hamster Ovary (CHO), NSC34 mouse motor neuronal cells, C6 (rat) and 1321N1 (human) astrocytic lines were routinely maintained in DMEM supplemented with 10% FBS and penicillin/streptomycin. […] These plasmids were transfected into CHO, C6 and 1321N1 cell lines using Lipofectamine 2000 (Invitrogen) and following 10-14 days of selection in 0.5 mg/ml G418 they were expanded and selected for basal eGFP expression using fluorescence activated cell sorting (BD, FACSAria) with two sequential cell sorts for each cell line. These mixed populations of stable transfectants with basal eGFP expression were used in subsequent assays and designated 4×ARE-TK-GFP for the ARE containing line and TK-GFP for the control cell line. […]
Confluent cultures of 4×ARE-TK-GFP CHO or TK-GFP CHO expressing cells in 96 or 384-well tissue-culture plates were treated with drug (0.01-100 µM in triplicate) or vehicle (0.1-1% DMSO) in FCS-free DMEM in triplicate for 24 hours. The media was removed and replaced with the same volume of PBS containing 0.3 μM EthD1. […] Non-linear regression was used to fit a sigmoidal dose-response curve on a semi-Log plot to calculate the EC50 using GraphPad Prism (GraphPad Software). The reporter assay was conducted in a similar fashion in C6 and 1321N1 astrocyte cell lines stably transfected with the 4×ARE-TK-GFP and TK-GFP constructs except that Eth D1 was added directly in the media and read prior to washing the cells once and reading the […] signal. […]
The compounds were applied in triplicate to confluent cells in 96 well plates in serum free medium for 24 hours and the induction of GFP measured in a fluorescence plate reader. […]

C6 (rat) astrocytic line [6] = test: C6 oxidative stress assay (serum withdrawal, DCF); details: for IC50: C6, 24 h pre-treatment, serum withdrawal, DCF; for Lowest dose with toxicity: C6; for Maximal % reduction in Oxidative stress: C6, DCF fluorescence
Experimental: as §1, §2

[7] = tested on: NSC34 mouse motor neuronal cells; test: NSC34 oxidative stress assay (serum withdrawal, DCF); details: for Lowest dose with toxicity: NSC34; for Maximal % reduction in Oxidative stress: NSC34, DCF fluorescence, negative = pro-oxidant
Experimental: as §1, §2

[8] = Cricetulus griseus, 24 h, read-out: Average EC50
[9] = read-out: Average EC50, CHO 4×ARE-TK-GFP, GFP induction, 24 h

| Compound | IC50 [1] [µM] | Lowest dose with toxicity ([5]; Chinese hamster, 24 h) [µM] | maximal fold induction ([5]; Cricetulus griseus, 24 h) | IC50 (C6 (rat) astrocytic line [6]) [µM] | Lowest dose with toxicity [1] | Lowest dose with toxicity (C6 (rat) astrocytic line [6]) | Lowest dose with toxicity [7] | Lowest dose with toxicity ([5]; CHO ARE reporter assay) | Maximal % reduction in Oxidative stress [1] [%] | Maximal % reduction in Oxidative stress (C6 (rat) astrocytic line [6]) [%] | Maximal % reduction in Oxidative stress [7] [%] | Average fold GFP induction at maximal response ([5]; CHO 4×ARE-TK-GFP, 24 h) [fold] | EC50 [5, 9] [µM] | also measured |
| --- | --- | --- | --- | --- | --- | --- | --- | --- | --- | --- | --- | --- | --- | --- |
| CC(=O)OC1CC[C@@]2(C)C(CC[C@H]3[C@@H]4CC=C(C(C)=O)[C@@]4(C)C(=O)C[C@@H]32)C1 (stereo partly shown) [3 acetoxypregn-16-en-12,20-dione] | ~12.4 | 30 | 3.14 |  |  |  |  |  |  |  |  |  |  | Lowest dose with toxicity [2]: none; Lowest dose with toxicity (C6 (rat) astrocytic line [3]): none; Lowest dose with toxicity [4]: none |
| CC(C)N(C(=O)CCl)c1ccccc1 [Propachlor] | 0.829 | 100 | 3.25 | 0.645 |  |  |  |  |  |  |  |  |  | Lowest dose with toxicity ([2]; mouse, 24 h): 10 µM; Lowest dose with toxicity (C6 (rat) astrocytic line [3]; rat, 24 h): 10 µM; Lowest dose with toxicity ([4]; human, 24 h): 10 µM; EC50 [5, 8]: 1.49 µM |
| O=C1C=C2C=C[C@@H]3C[C@@]2(O1)[C@H]1CCCCN31 [Securinine] | 18.3 |  | 3 | 0.645 | none | none | none | 30 µM |  |  |  |  |  | EC50 [5, 8]: 2.12 µM |
| CC1=CC(=O)C(C(C)C)=CC1=O [Thymoquinone] |  | 30 | 2.58 |  | none | none | none |  |  |  |  |  |  |  |
| CC(=O)O[C@@H]1C[C@H]2C(C)(C)C(=O)C=C[C@]2(C)[C@H]2CC[C@]3(C)C(=CC(=O)O[C@H]3c3ccoc3)[C@@]21C [deoxygedunin] | 1.41 |  |  | 2.19 | 10 µM | none | 10 µM | 30 µM | 25 | 61 | 7 | 1.82 | 1.15 |  |
| O=C(CC[N+](=O)[O-])OC[C@H]1O[C@@H](O)[C@H](OC(=O)CC[N+](=O)[O-])[C@@H](OC(=O)CC[N+](=O)[O-])[C@@H]1OC(=O)CC[N+](=O)[O-] [endecaphyllin X] |  |  |  | 3.15 | none | none | 10 µM | None | 56 | 40 | 0 | 2.15 | 18.8 |  |
| C[C@@H]1C(=O)O[C@H]2[C@H]1CC[C@@]1(C)C=CC(=O)[C@@]3(C)O[C@@]213 [epoxy(4,5α)-4,5-dihydrosantonin] | 0.662 |  |  | 2.13 |  |  |  | 100 µM | 63 | 62 | 0 | 2.91 | 18.2 | Lowest dose with toxicity [2]: 3 µM; Lowest dose with toxicity (C6 (rat) astrocytic line [3]): none; Lowest dose with toxicity [4]: none |
| Oc1ccc(O)cc1 [hydroquinone, reference compound] |  | 100 | 2.95 |  | none | none | none |  |  |  |  |  |  |  |
| OC[C@H]1O[C@@H](n2cnc3c(NCc4ccco4)ncnc32)[C@H](O)[C@@H]1O [kinetin riboside] | 0.246 | 30 | 1.97 | 3.84 | 3 µM | 10 µM | 3 µM |  |  |  |  |  |  | EC50 ([5]; Cricetulus griseus, 24 h, read-out: Average EC50, CHO 4×ARE-TK-GFP, GFP induction, 24 h): 3.39 µM |
| CC(=O)CCC(=O)O [levulinc acid, Levulinic acid] |  |  | 2.94 |  | none | none | none |  |  |  |  |  |  | Lowest dose with toxicity [5]: None |
| C=C(C)C(=O)C(=CC(=O)O)OC [penicillic acid] |  |  | 2.64 | 4.62 | none | none | none | 100 µM |  |  |  |  |  | EC50 [5, 8]: 14.9 µM |
| COc1ccc2c(c1)OC/C(=C/c1ccc(OC)c(OC)c1)C2=O [sappanone A trimethyl ether] | 0.279 |  |  |  | none | none | none | 100 µM | 40 | 27 | −60 | 1.99 | 3.5 |  |
| COC(=O)[C@H](O)[C@H]1C(C)(C)[C@H](OC(C)=O)[C@@H]2CC3=C4CC(=O)O[C@@H](c5ccoc5)[C@]4(C)CC[C@@H]3[C@@]1(C)C2=O [swietenolide 3 acetate] |  |  |  | 4.22 | none | none | 0.3 µM | 100 µM | 60 | 50 | 0 | 2.82 | 3.5 |  |
| Euphol acetate | 18 |  |  |  | none | none | none | 100 µM | 38 | 0 | −43 | 2.20 | ~99 |  |
| methyl-7-deshydroxypyrogallin-4-carboxylate |  |  |  | 2.95 | none | none | 0.3 µM | 100 µM | 45 | 70 | −23 | 2.83 | 2050 |  |
